The values that follow come from publication PMC12264794, “Homoleptic complexes of titanium(IV) fused with O^N^O Schiff base derivatives: design, BSA–DNA interaction, molecular docking, DFT and cytotoxicity” (RSC Advances, 2025).

SMILES strings stand for the structures.

Assay [1] concerns CT-DNA. Conditions: constant used in eqn (6); no reference given; cited from earlier work.
Assay [2] has as its system HeLa cells. The assay is described as follows: Flow cytometry cell cycle analysis by PI staining. The following applies: 48 h, complexes at IC50, cis-platin 5 μM. In kind it is cell-based, human. The protocol: A flow cytometer was also used to do the apoptotic assessment. HeLa cells (5 × 10^5) were seeded onto 6-well plates using Dulbecco's Modified Eagle Medium paper (DMEM) with 10% FBS. The plates were incubated overnight at 37 °C with 95% air and 5% CO2. […] Following trypsinization, the cells were collected, cleaned with PBS, and fixed for 24 hours at 2–6 °C in ice-cold 70% ethanol. Centrifugation was used to remove the ethanol, and cold PBS was used twice to wash the cell pellets. Later the cells were stained with propidium iodide (PI, 1 mg mL^−1) and incubated for 30 min. Flow cytometric analysis was performed using a FACS scanner and the Becton Dickinson cell search program at 595 nm and the distribution of cells in various cell cycle phases was determined.[69,70]
Through cell cycle analysis, the mechanism of cancer cell death caused by the complexes was evaluated. Anticancer drugs promote growth-inhibitory action in cancer cells by a variety of mechanisms, one of which is dysfunction in the regulation of the cell cycle.[32] For example, cis-platin inhibits DNA transcription in cells by stopping the cell cycle in the S and G2/M phases. PI staining and flow cytometry were used to examine the ability of the complexes to modify the cell cycle (Fig. 19).
On the technique in general: A flow cytometer gives signals particle by particle.

Take `CC[n+]1c(-c2ccccc2)c2cc(N)ccc2c2ccc(N)cc21` [EB, ethidium bromide]: the “KEtBr, DNA binding constant of EB” value in assay [1] was 1e+07 M⁻¹.
Consider `N.N.[Cl][Pt][Cl]` [Cis-platin, cis-platin, reference compound], for which, in assay [2], the G0/G1 phase was determined as 27.12%, the “M Phase” value amounted to 17.52%, the “S Phase” value was determined as 10.11% and the Sub-G0 phase is reported as 45.25%.
